Assay results: publication PMC6742646, “Extensive disruption of protein interactions by genetic variants across the allele frequency spectrum in human populations” (Nature Communications, 2019)

Target: T1, AKR7A2 (Homo sapiens, UniProt O43488)
T1 construct: hORFeome ORF cloned EcoRI/XhoI in pET-6xHis-SUMO; E. coli Rosetta; cobalt purified, His-SUMO tag cleaved with Ulp1, FPLC; dimer in solution
Experiment: NADPH-dependent SSA reduction, absorbance plate assay
Assay type: biochemical
Conditions: 0.5 mM NADPH, sodium phosphate pH 8.0, 37 °C; SSA 0.50-3.5 mM; only kcat/KM printed

T1 sequence (O43488 whole entry): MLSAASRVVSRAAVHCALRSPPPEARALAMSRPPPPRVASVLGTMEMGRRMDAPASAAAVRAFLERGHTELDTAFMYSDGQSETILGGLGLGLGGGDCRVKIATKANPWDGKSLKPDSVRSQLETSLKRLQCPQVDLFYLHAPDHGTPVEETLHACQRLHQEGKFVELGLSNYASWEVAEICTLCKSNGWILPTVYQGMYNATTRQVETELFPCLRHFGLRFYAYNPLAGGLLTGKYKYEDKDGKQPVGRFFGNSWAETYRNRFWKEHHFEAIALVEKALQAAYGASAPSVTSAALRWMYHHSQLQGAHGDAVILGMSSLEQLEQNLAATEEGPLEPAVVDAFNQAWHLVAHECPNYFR

O=CCCC(=O)O [succinic semialdehyde]
NADPH-dependent SSA reduction, absorbance plate assay: we purified recombinant WT and mutant AKR7A2 protein to test for changes in NADPH-dependent turnover
